Values quoted from earlier work, collected in patent publication US12527979B2, “Treatment of HER3-mutated cancer by administration of anti-HER3 antibody-drug conjugate” (DAIICHI SANKYO COMPANY, LIMITED, priority 2018, dated 2026).
Like-named read-outs stand apart in the source and are kept apart here.

What was measured:
topoisomerase I = molecular target: T1, topoisomerase I (Homo sapiens, UniProt P11387)
T1 sequence (P11387 1-765): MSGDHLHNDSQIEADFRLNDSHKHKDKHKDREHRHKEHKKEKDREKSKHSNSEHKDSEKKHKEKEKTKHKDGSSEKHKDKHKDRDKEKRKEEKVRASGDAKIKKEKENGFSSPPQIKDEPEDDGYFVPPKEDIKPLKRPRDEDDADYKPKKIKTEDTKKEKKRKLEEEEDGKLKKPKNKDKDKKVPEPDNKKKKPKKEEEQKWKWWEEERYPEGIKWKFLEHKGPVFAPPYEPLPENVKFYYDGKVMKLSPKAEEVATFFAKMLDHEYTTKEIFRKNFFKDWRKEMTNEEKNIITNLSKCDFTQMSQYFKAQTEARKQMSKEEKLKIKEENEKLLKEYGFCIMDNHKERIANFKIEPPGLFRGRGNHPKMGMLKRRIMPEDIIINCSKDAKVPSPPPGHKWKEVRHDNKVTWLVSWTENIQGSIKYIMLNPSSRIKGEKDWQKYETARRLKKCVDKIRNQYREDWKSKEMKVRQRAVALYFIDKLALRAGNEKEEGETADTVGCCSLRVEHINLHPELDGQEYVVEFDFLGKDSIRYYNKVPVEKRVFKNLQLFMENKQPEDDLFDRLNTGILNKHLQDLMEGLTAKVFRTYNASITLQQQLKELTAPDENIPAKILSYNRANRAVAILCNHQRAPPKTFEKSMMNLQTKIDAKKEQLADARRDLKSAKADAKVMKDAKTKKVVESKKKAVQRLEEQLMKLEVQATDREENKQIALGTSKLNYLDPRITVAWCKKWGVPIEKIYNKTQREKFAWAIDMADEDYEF

HER3-mutated cancers [1] = conditions: in vitro and in vivo, in situations where HER2 is overexpressed
HER3-mutated cancers [2] = conditions: clinical studies

Structure (SMILES): CC[C@@]1(O)C(=O)OCc2c1cc1n(c2=O)Cc2c-1nc1cc(F)c(C)c3c1c2[C@@H](NC(=O)CO)CC3
- topoisomerase I inhibitory effect (topoisomerase I): confirmed to have a topoisomerase I inhibitory effect

Structure (SMILES): CS(=O)(=O)CCNCc1ccc(-c2ccc3ncnc(Nc4ccc(OCc5cccc(F)c5)c(Cl)c4)c3c2)o1 [lapatinib]
- effectiveness against HER3-mutated cancers (HER3-mutated cancers [1]): exhibited effectiveness

Structure (SMILES): CCOc1cc2ncc(C#N)c(Nc3ccc(OCc4ccccn4)c(Cl)c3)c2cc1NC(=O)/C=C/CN(C)C [neratinib]
- effectiveness against HER3-mutated cancers (HER3-mutated cancers [2]): no effectiveness
